The record followed here is BindingDB's records for doi:10.1016/j.bmcl.2010.03.025 (Wyeth Research, 2010).

The target in this assay is 3-phosphoinositide-dependent protein kinase 1 (PDPK1) (Homo sapiens) (UniProt O15530). As to the kind of experiment: Inhibition of PDK1.

As for `COc1cc(Nc2c(C#N)cnc3cc(/C=C/CCN4CCN(C)CC4)c(OC)cc23)c(Cl)cc1Cl` [(E)-4-(2,4-dichloro-5-methoxyphenylamino)-6-methoxy-7-(4-(4-methylpiperazin-1-yl)but-1-enyl)quinoline-3-carbonitrile], the concentration for half-maximal inhibition (IC50) was more than 10 µM.
